{"source": "patent US8063029B2", "about": "“Pharmaceutical composition” (FCB I LLC, priority 2002, dated 2011)", "key": {"[1]": {"assay": "Solubility / miscibility in carrier fluids", "type": "physicochemical", "source_text": "In such situations, when the first fluid evaporates, the compound of interest is left in a supersaturated environment in which it is favorable for the compound to pass into a less saturated environment, in this case through the membrane. […] Accordingly, if increased flux for oxacyclohexadecan-2-one is desired, a carrier may include ethanol and propylene glycol and/or water. […] Accordingly, if increased flux for testosterone is desired, a carrier may include ethanol and water or ethanol and propylene glycol. In addition, water may be used to prevent “reverse-flux”, or the flow of water from the membrane into the matrix of the composition."}, "[2]": {"conditions": "in vivo; cited from earlier work"}}}
{"compound": "C[C@]12CC[C@H]3[C@@H](CCC4=CC(=O)CC[C@@]43C)[C@@H]1CC[C@@H]2O", "note": "[testosterone, 17β-hydroxyandrost-4-en-3-one]", "values": [{"measurement": "solubility / miscibility", "setting": "[1]; in ethanol", "result": "soluble"}, {"measurement": "solubility / miscibility", "setting": "[1]; in propylene glycol", "result": "partially soluble"}, {"measurement": "solubility / miscibility", "setting": "[1]; in water", "result": "not soluble"}, {"measurement": "typical half-life in the blood serum", "setting": "[2]", "result": "10 to 100", "unit": "min"}]}
